Measured values: US11384101B2, “Oral care compositions” (priority 2017, dated 2022)
Where two headings read alike, the source gives them in different places.

Legend:
[1] = test system: oral bacteria; test: Alamar Blue assay of antibacterial efficacy in the presence of SLS; assay type: cell-based, oral bacteria from human saliva; conditions: 1 hour after addition of dye; for presence or absence of live bacteria (indicated by color): Alamar Blue assay in the presence of SLS; for Color of Solution: Alamar Blue, 10 mg active + 20 mg of 30 weight % SLS solution + 5 ml oral bacteria solution, 37° C., blue to red indicates live bacteria
Experimental: Table 1 describes the results of an assay evaluating the antibacterial efficacy of an exemplary CPC-ZnCl2 complex of the present invention, in the presence of an anionic surfactant. […] A negative control was also prepared adding 20 mg (+/− 0.9 mg) of the 30 weight % SLS aqueous solution and 5 ml of the prepared oral bacteria solution to deionized water instead of the antibacterial ingredient. The samples were then placed in a 37° C. oven and shaken at 100 RPM for 30 minutes. 200 μL of Alamar Blue dye was then added to each sample and placed back in the 37° C. oven and shaken at 100 RPM. The samples were then monitored every 30 minutes, with the results 1 hour after addition of the dye recorded in Table 1.

[2] = deionized water, physiological temperature (36-37° C.)
[3] = deionized water, room temperature (23-24° C.)
[4] = deionized water, room temperature (23-24° C.), even after 24 hours of aging

## [Cl-].[Cl-].[Zn+2] [ZnCl2, zinc chloride]
[1]
  presence or absence of live bacteria (indicated by color): presence of live bacteria
  Color of Solution: Purple

## CCCCCCCCCCCCCCCC[n+]1ccccc1.CCCCCCCCCCCCCCCC[n+]1ccccc1.[Cl][Zn-2]([Cl])([Cl])[Cl] [CPC-ZnCl2 complex, [(C21H38N)2][ZnCl4]]
[2]
  solubility of 1.0 weight % aqueous solution: soluble
  solubility of 10 weight % aqueous solution: not fully soluble
[3]
  solubility of 0.1 weight % aqueous solution: soluble
  solubility of 0.5 weight % aqueous solution: soluble
[4]
  solubility of 1.0 weight % aqueous solution: undissolved
  solubility of 10.0 weight % aqueous solution: undissolved
water
  reduction in solubility compared to the CPC and ZnCl2 reactants separately: ≥ 25 fold
[1]
  presence or absence of live bacteria (indicated by color): absence of live bacteria
  Color of Solution: Blue

## CCCCCCCCCCCCCCCC[n+]1ccccc1 [CPC, Cetylpyridinium chloride]
[1]
  presence or absence of live bacteria (indicated by color): presence of live bacteria
  Color of Solution: Pink
